According to patent publication US9527830B2 (Merck Sharp & Dohme Corp., priority 2011, dated 2016):

Molecular target: T1, hROMK1 (Kir1.1) (Homo sapiens, UniProt P48048)
T1 construct: expressed in transfected cells
T1 sequence (P48048 1-391): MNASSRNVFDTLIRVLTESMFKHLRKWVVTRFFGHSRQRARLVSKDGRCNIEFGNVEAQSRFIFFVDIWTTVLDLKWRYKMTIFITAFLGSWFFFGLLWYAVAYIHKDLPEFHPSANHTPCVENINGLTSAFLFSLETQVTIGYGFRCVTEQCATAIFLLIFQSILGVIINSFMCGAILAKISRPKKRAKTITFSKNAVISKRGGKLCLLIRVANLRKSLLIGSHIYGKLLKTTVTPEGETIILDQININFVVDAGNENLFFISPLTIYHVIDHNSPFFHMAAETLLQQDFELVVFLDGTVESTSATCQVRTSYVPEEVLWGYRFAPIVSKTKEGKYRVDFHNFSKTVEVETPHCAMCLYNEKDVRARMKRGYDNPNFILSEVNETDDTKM
Experiment: ^86Rb^+ Efflux Assay
Assay type: cell-based
Conditions: CHO-DHFR- cells stably expressing hROMK1; potency ranges
Procedure: Several assays may be used to measure functional inhibition of the ROMK channel by compounds of the instant invention. One primary assay that can be used is a functional ^86Rb^+ efflux assay that measures the ability of ROMK to permeate ^86Rb^+, in the absence or presence of test compound. Under control conditions, cells loaded with ^86Rb^+ and incubated in Rb^+-free medium display a time-dependent efflux of the isotope, the rate of which depends on number of functional channels. When cells are incubated in the presence of a channel inhibitor, efflux of ^86Rb^+ is prevented in a concentration-dependent manner, and IC50 values of inhibition by compounds can be accurately determined. This assay has been established with cell lines expressing either human, rat or dog ROMK channels, and can operate in 96- or 384-well format. Importantly, the human, rat, and dog ^86Rb^+ efflux assays can be carried out in the presence of up to 100% serum allowing, therefore, an accurate estimation of the effect of protein binding on the inhibitory activity of compounds of interest. Another ROMK functional assay makes use of the ability of thallium to permeate through open ROMK channels and increase the fluorescence of a dye previously loaded into the cells. Under control conditions, cells loaded with dye and exposed to thallium-containing medium display a time-dependent increase in fluorescence, the rate of which depends on number of functional channels. When cells are incubated in the presence of a channel inhibitor, the increase in fluorescence is attenuated in a concentration-dependent manner, and IC50 values of inhibition by compounds can be accurately determined. This assay has been established with cell lines expressing either human, or rat ROMK channels, and operates in 384-well format. Another assay for evaluation of the compounds of the instant invention and for evaluation of mechanism of action of compounds of Formula I relies on the measurement of the electrical current that is generated as potassium permeates through the channel. For these electrophysiological experiments, three different platforms, IonWorks, QPatch, or manual patch clamp, are used, depending on the experimental protocol under consideration. IonWorks operates in a 384-well format and allows accurate determination of IC50 values for inhibitors.
CHO-DHFR-cells stably expressing hROMK1 (Kir1.1) were grown at 37° C. in a 10% CO2 humidified incubator in Iscove's Modified Dulbecco's Medium (Gibco 12440) supplemented with HT Supplement, Penicillin/Streptomycin/Glutamine, G418 (500 μg/ml) and 10% FBS. Cells were seeded in Sterile and Tissue Culture Treated Packard CulturPlate White Opaque Microplates at a concentration of 5.0E5-7.0E5 cells/ml—PerkinElmer 6005680 (96-well); Corning 3707 (384 well) in complete media containing 1.5 μCi/ml Rubidium-86. Cells were incubated in 37° C.-10% CO2 incubator overnight. On the day of the experiment, the media was removed and cells washed with low K assay buffer. ^86Rb^+ efflux was initiated after addition of assay buffer±test compound followed by 35 min incubation at room temperature. ROMK-sensitive component of efflux was defined in the presence of 10 mM BaCl2. Assay buffer was removed and transferred to a plate and cells were solubilized in the presence of SDS. Radioactivity associated with assay and cell plate was determined.
• 1. Removed cell media and washed cells with low K assay buffer (126.9 mM NaCl, 4.6 mM KCl, 2 mM CaCl2, 1 mM MgCl2, 10 mM Hepes/NaOH; pH 7.4) • 200 μl for 96-well plate; 70 μl for 384-well plate • 2. Added assay buffer (121.5 mM NaCl, 10 mM KCl, 2 mM CaCl2, 1 mM MgCl2, 10 mM Hepes/NaOH; pH 7.4)±test compound to cells • 100 μl for 96-well plate; 50 μl for 384-well plate • 3. Incubated at ambient temperature (22-24° C.) for 35 min • 4.

Row | IC50 [nM] | SMILES
1 | ≤ 200 | O=C(Cc1ccc(-n2cnnn2)cc1)N1CCC(CCc2ccc([N+](=O)[O-])cc2)CC1 [Example 4, 2-(4-(1H-Tetrazol-1-yl)phenyl)-1-(4-(4-nitrophenethyl)piperidin-1-yl)ethanone]
2 | ≤ 200 | O=C(Cc1ccc(-n2cnnn2)cc1)N1CCC(/C=C/c2ccc3nonc3c2)CC1 [Example 5]
3 | ≤ 200 | O=C1OCc2cc(/C=C/C3CCN(C(=O)Cc4ccc(-n5cnnn5)cc4)CC3)ccc21 [Example 6]
4 | ≤ 500 | O=C1OCc2cc(CCC3CCN(C(=O)Cc4ccc(-n5cnnn5)cc4)CC3)ccc21 [Example 7, 5-[2-(1-{[4-(1H-Tetrazol-1-yl)phenyl]acetyl}piperidin-4-yl)ethyl]-2-benzofuran-1(3H)-one]
5 | ≤ 500 | O=C(Cc1ccc(-n2cnnn2)cc1)N1CCC(O)(CCc2ccc3nonc3c2)CC1 [Example 8, 1-{4-[2-(2,1,3-Benzoxadiazol-5-yl)ethyl]-4-hydroxypiperidin-1-yl}-2-[4-(1H-tetrazol-1-yl)phenyl]ethanone]
6 | ≤ 500 | N#Cc1cc(C#CC2(O)CCN(C(=O)Cc3ccc(-n4cnnn4)cc3)CC2)ccc1F [Example 10, 2-Fluoro-5-[(4-hydroxy-1-{[4-(1H-tetrazol-1-yl)phenyl]acetyl}piperidin-4-yl)ethynyl]benzonitrile]
7 | ≤ 200 | O=C(Cc1ccc(-n2cnnn2)cc1)N1CCC(Sc2ccc([N+](=O)[O-])cc2)CC1 [Example 12, 1-{4-[(4-Nitrophenyl)sulfanyl]piperidin-1-yl}-2-[4-(1H-tetrazol-1-yl)phenyl]ethanone]
8 | ≤ 500 | N#Cc1cc(CCC2(O)CCN(C(=O)Cc3ccc(-n4cnnn4)cc3)CC2)ccc1F [Example 13, 2-Fluoro-5-[2-(4-hydroxy-1-{[4-(1H-tetrazol-1-yl)phenyl]acetyl}piperidin-4-yl)ethyl]benzonitrile]
9 | ≤ 500 | N#Cc1cc(CCC2(F)CCN(C(=O)Cc3ccc(-n4cnnn4)cc3)CC2)ccc1F [Example 14, 2-Fluoro-5-[2-(4-fluoro-1-{[4-(1H-tetrazol-1-yl)phenyl]acetyl}piperidin-4-yl)ethyl]benzonitrile]
10 | ≤ 500 | CCOC(=O)C1(CCc2ccc(F)c(C#N)c2)CCN(C(=O)Cc2ccc(-n3cnnn3)cc2)CC1 [Example 15, Ethyl 4-[2-(3-cyano-4-fluorophenyl)ethyl]-1-{[4-(1H-tetrazol-1-yl)phenyl]acetyl}piperidine-4-carboxylate]
11 | ≤ 500 | Cc1cc(-n2cnnn2)ccc1CC(=O)N1CCC(O)(CCc2ccc(F)c(C#N)c2)CC1 [Example 18, 2-Fluoro-5-[2-(4-hydroxy-1-{[2-methyl-4-(1H-tetrazol-1-yl)phenyl]acetyl}piperidin-4-yl)ethyl]benzonitrile]
12 | ≤ 500 | N#Cc1cc(CCC2(CO)CCN(C(=O)Cc3ccc(-n4cnnn4)cc3)CC2)ccc1F [Example 26, 2-Fluoro-5-{2-[4-(hydroxymethyl)-1-{[4-(1H-tetrazol-1-yl)phenyl]acetyl}piperidin-4-yl]ethyl}benzonitrile]
13 | ≤ 500 | N#Cc1cc(CCC2(C(F)F)CCN(C(=O)Cc3ccc(-n4cnnn4)cc3)CC2)ccc1F [Example 27, 5-{2-[4-(Difluoromethyl)-1-{[4-(1H-tetrazol-1-yl)phenyl]acetyl}piperidin-4-yl]ethyl}-2-fluorobenzonitrile]
14 | ≤ 500 | N#Cc1cc(/C=C/C2(O)CCN(C(=O)Cc3ccc(-n4cnnn4)cc3)CC2)ccc1F [Example 29, 2-Fluoro-5-[(E)-2-(4-hydroxy-1-{[4-(1H-tetrazol-1-yl)phenyl]acetyl}piperidin-4-yl)ethenyl]benzonitrile]
15 | ≤ 200 | N#Cc1cc(CCC2(O)CCN(CCc3ccc4c(c3)COC4=O)CC2)ccc1F [Example 30, 2-Fluoro-5-(2-{4-hydroxy-1-[2-(1-oxo-1,3-dihydro-2-benzofuran-5-yl)ethyl]piperidin-4-yl}ethyl)benzonitrile]
16 | ≤ 500 | N#Cc1cc(CCC2(O)CCN(C(=O)Cc3ccc(-n4cnnn4)cc3C(F)(F)F)CC2)ccc1F [Example 31, 2-Fluoro-5-[2-(4-hydroxy-1-{[4-(1H-tetrazol-1-yl)-2-(trifluoromethyl)phenyl]acetyl}piperidin-4-yl)ethyl]benzonitrile]
17 | ≤ 500 | N#Cc1c(F)ccc(C#CC2(O)CCN(C(=O)Cc3ccc(-n4cnnn4)cc3)CC2)c1F [Example 33, 2,6-Difluoro-3-[(4-hydroxy-1-{[4-(1H-tetrazol-1-yl)phenyl]acetyl}piperidin-4-yl)ethynyl]benzonitrile]
18 | ≤ 500 | N#Cc1c(F)ccc(CCC2(O)CCN(C(=O)Cc3ccc(-n4cnnn4)cc3)CC2)c1F [Example 34, 2,6-Difluoro-3-[2-(4-hydroxy-1-{[4-(1H-tetrazol-1-yl)phenyl]acetyl}piperidin-4-yl)ethyl]benzonitrile]
19 | ≤ 500 | Cc1c(C#CC2(O)CCN(C(=O)Cc3ccc(-n4cnnn4)cc3)CC2)ccc(F)c1C#N [Example 36, 6-Fluoro-3-[(4-hydroxy-1-{[4-(1H-tetrazol-1-yl)phenyl]acetyl}piperidin-4-yl)ethynyl]-2-methylbenzonitrile]
20 | ≤ 500 | Cc1c(CCC2(O)CCN(C(=O)Cc3ccc(-n4cnnn4)cc3)CC2)ccc(F)c1C#N [Example 37, 6-Fluoro-3-[2-(4-hydroxy-1-{[4-(1H-tetrazol-1-yl)phenyl]acetyl}piperidin-4-yl)ethyl]-2-methylbenzonitrile]
21 | ≤ 500 | N#Cc1c(F)ccc(C#CC2(O)CCN(C(=O)Cc3ccc(-n4cnnn4)cc3)CC2)c1Cl [Example 39, 2-Chloro-6-fluoro-3-[(4-hydroxy-1-{[4-(1H-tetrazol-1-yl)phenyl]acetyl}piperidin-4-yl)ethynyl]benzonitrile]
22 | ≤ 500 | N#Cc1c(F)ccc(CCC2(O)CCN(C(=O)Cc3ccc(-n4cnnn4)cc3)CC2)c1Cl [Example 40, 2-Chloro-6-fluoro-3-[2-(4-hydroxy-1-{[4-(1H-tetrazol-1-yl)phenyl]acetyl}piperidin-4-yl)ethyl]benzonitrile]
23 | ≤ 200 | Cc1c(/C=C/C2CCN(C(=O)Cc3ccc(-n4cnnn4)cc3)CC2)ccc2c1COC2=O [Example 41, 4-Methyl-5-[(E)-2-(1-{[4-(1H-tetrazol-1-yl)phenyl]acetyl}piperidin-4-yl)ethenyl]-2-benzofuran-1(3H)-one]
24 | ≤ 500 | O=C1OCc2cc(/C=C/C3CCN(C(=O)Cc4ccc5c(c4)COC5=O)CC3)ccc21 [Example 47, 5-[(E)-2-{1-[(1-Oxo-1,3-dihydro-2-benzofuran-5-yl)acetyl]piperidin-4-}ethenyl]-2-benzofuran-1(3H)-one]

Row | SMILES | IC50 [nM]
25 | COC(=O)C1(CCc2ccc([N+](=O)[O-])cc2)CCN(CCc2ccc([N+](=O)[O-])cc2)CC1 [Example 1, Methyl 1,4-bis[2-(4-nitrophenyl)ethyl]piperidine-4-carboxylate] | ≤ 200
26 | O=[N+]([O-])c1ccc(/C=C/C2CCN(CCc3ccc([N+](=O)[O-])cc3)CC2)cc1 [Example 2, 4-[(E)-2-(4-Nitrophenyl)ethenyl]-1-[2-(4-nitrophenyl)ethyl]piperidine] | ≤ 200
27 | O=[N+]([O-])c1ccc(CCC2CCN(CCc3ccc([N+](=O)[O-])cc3)CC2)cc1 [Example 3, 1,4-bis[2-(4-Nitrophenyl)ethyl]piperidine] | ≤ 200
